Test results taken from patent publication US12233161B1, “Lipids and lipid nanoparticle formulations” (LONGUIDE BIOPHARMA CORPORATION, priority 2024, dated 2025).

Columns and labels:
[1] = Particle size and PDI of nucleic acid lipid nanoparticle preparations by dynamic light scattering; format: physicochemical
How it was run: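 LNP solution (about 0.04 mg/mL mRNA before dilution) was diluted in ultrapure water and mixed by gentle pipetting. Particle size and PDI were then measured by dynamic light scattering.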

[2] = Potential characterization of nucleic acid lipid nanoparticle preparations; format: physicochemical
How it was run: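 Zeta potential was read on a Malvern ZEN3700 after diluting 20 μL lipid nanoparticle solution (about 0.04 mg/mL mRNA) into 780 μL ultrapure water. Alternatively, a 27.5 μL sample in 200 μL water was first sized by dynamic light scattering, then diluted with 600 μL more water for potential measurement.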

mice = test: In vivo delivery of FLuc-mRNA lipid nanoparticles in mice, in vivo imaging (IVIS)
How it was run: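 Mice (n=3) received about 75 μL FLuc-mRNA LNP per mouse intramuscularly (rectus femoris), intravenously (tail vein), intraperitoneally or subcutaneously (back). After injection, D-luciferin (200 μL, 15 mg/mL) was given i.p. 10-15 min before IVIS imaging.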

[3] = DMG-PEG2000:DSPC:Chol:Lipid 1.50:11.50:17.00:70.00, N/P 30, mRNA LNP
[4] = DMG-PEG2000:DSPC:Chol:Lipid 1.50:11.50:37.00:50.00, N/P 30, mRNA LNP
[5] = DMG-PEG2000:DSPC:Chol:Lipid 1.50:11.50:57.00:30.00, N/P 30, mRNA LNP
[6] = DMG-PEG2000:DSPC:Chol:Lipid 1.71:12.98:45.31:40.00, N/P 30, mRNA LNP
[7] = DMG-PEG2000:DSPC:Chol:Lipid 2.50:11.50:51.00:35.00, N/P 18, mRNA LNP
[8] = DMG-PEG2000:DSPC:Chol:compound 1.50:30.00:33.50:35.00, N/P 9
[9] = DMG-PEG2000:DSPC:Chol:compound 1.50:30.00:48.50:20.00, N/P 9
[10] = DMG-PEG2000:DSPC:Chol:compound 1.50:30.00:58.50:10.00, N/P 9
[11] = DMG-PEG2000:DSPC:Chol:compound 1.50:30.00:63.50:5.00, N/P 9
[12] = DMG-PEG2000:DSPC:Chol:Lipid 1.50:11.50:17.00:70.00, N/P 30, IV, liver
[13] = DMG-PEG2000:DSPC:Chol:Lipid 1.50:11.50:17.00:70.00, N/P 30, IV, lung
[14] = DMG-PEG2000:DSPC:Chol:Lipid 1.50:11.50:17.00:70.00, N/P 30, IV, spleen
[15] = DMG-PEG2000:DSPC:Chol:Lipid 1.50:11.50:37.00:50.00, N/P 30, IV, liver
[16] = DMG-PEG2000:DSPC:Chol:Lipid 1.50:11.50:37.00:50.00, N/P 30, IV, lung
[17] = DMG-PEG2000:DSPC:Chol:Lipid 1.50:11.50:37.00:50.00, N/P 30, IV, spleen
[18] = DMG-PEG2000:DSPC:Chol:Lipid 1.50:11.50:57.00:30.00, N/P 30, IV, liver
[19] = DMG-PEG2000:DSPC:Chol:Lipid 1.50:11.50:57.00:30.00, N/P 30, IV, lung
[20] = DMG-PEG2000:DSPC:Chol:Lipid 1.50:11.50:57.00:30.00, N/P 30, IV, spleen
[21] = DMG-PEG2000:DSPC:Chol:Lipid 2.50:11.50:51.00:35.00, N/P 18, IV, liver
[22] = DMG-PEG2000:DSPC:Chol:Lipid 2.50:11.50:51.00:35.00, N/P 18, IV, lung
[23] = DMG-PEG2000:DSPC:Chol:Lipid 2.50:11.50:51.00:35.00, N/P 18, IV, spleen

PDI [1, 3]: 0.17 ± 0.01
Particle size [1, 3]: 118.13 ± 0.40 nm
PDI [1, 4]: 0.20 ± 0.01
Particle size [1, 4]: 130.87 ± 0.87 nm
PDI [1, 5]: 0.13 ± 0.02
Particle size [1, 5]: 88.09 ± 0.52 nm
PDI [1, 6]: 0.24 ± 0.02
Particle size [1, 6]: 94.33 ± 1.52 nm
PDI [1, 7]: 0.17 ± 0.01
Particle size [1, 7]: 99.13 ± 0.78 nm
PDI [1, 8]: 0.20
Particle size (nm) [1, 8]: 141.40 nm
PDI [1, 9]: 0.21
Particle size (nm) [1, 9]: 107.23 nm
PDI [1, 10]: 0.21
Particle size (nm) [1, 10]: 136.30 nm
PDI [1, 11]: 0.16
Particle size (nm) [1, 11]: 128.87 nm
Zeta potential (mV) [2, 8]: 16.03 mV
Zeta potential (mV) [2, 9]: 14.53 mV
Zeta potential (mV) [2, 10]: 15.47 mV
Zeta potential (mV) [2, 11]: 16.57 mV
SMILES: CCCCCCCCCCCCOC(=O)C(O)CN(CCCN(C)CCCN(CC(O)C(=O)OCCCCCCCCCCCC)CC(O)C(=O)OCCCCCCCCCCCC)CC(O)C(=O)OCCCCCCCCCCCC (centres unmarked) [Compound L0261]
IVIS (mice; DMG-PEG2000:DSPC:Chol:Lipid 1.50:11.50:17.00:70.00, N/P 30, IV, body): 4.64 × 10^7
% of organ targeting (mice; [12]): 1.68%
IVIS (mice; [12]): 1.65 × 10^6
% of organ targeting (mice; [13]): 91.29%
IVIS (mice; [13]): 8.93 × 10^7
% of organ targeting (mice; [14]): 7.03%
IVIS (mice; [14]): 6.88 × 10^6
IVIS (mice; DMG-PEG2000:DSPC:Chol:Lipid 1.50:11.50:37.00:50.00, N/P 30, IV, body): 1.09 × 10^8
% of organ targeting (mice; [15]): 30.20%
IVIS (mice; [15]): 1.83 × 10^7
% of organ targeting (mice; [16]): 30.87%
IVIS (mice; [16]): 1.87 × 10^7
% of organ targeting (mice; [17]): 38.93%
IVIS (mice; [17]): 2.36 × 10^7
IVIS (mice; DMG-PEG2000:DSPC:Chol:Lipid 1.50:11.50:57.00:30.00, N/P 30, IV, body): 5.88 × 10^7
% of organ targeting (mice; [18]): 17.84%
IVIS (mice; [18]): 1.20 × 10^7
% of organ targeting (mice; [19]): 7.50%
IVIS (mice; [19]): 5.06 × 10^6
% of organ targeting (mice; [20]): 74.66%
IVIS (mice; [20]): 5.03 × 10^7
IVIS (mice; DMG-PEG2000:DSPC:Chol:Lipid 1.71:12.98:45.31:40.00, N/P 30, IM, whole body scan): 5.24 × 10^6
IVIS (mice; DMG-PEG2000:DSPC:Chol:Lipid 2.50:11.50:51.00:35.00, N/P 18, IV, body): 4.72 × 10^7
% of organ targeting (mice; [21]): 6.56%
IVIS (mice; [21]): 3.81 × 10^6
% of organ targeting (mice; [22]): 1.88%
IVIS (mice; [22]): 1.09 × 10^6
% of organ targeting (mice; [23]): 91.57%
IVIS (mice; [23]): 5.33 × 10^7
IVIS (mice; IV, body, DMG-PEG2000:DSPC:Chol:compound 1.50:30.00:33.50:35.00, N/P 9, Fluc-mRNA): 2.66E+07
IVIS (mice; IV, body, DMG-PEG2000:DSPC:Chol:compound 1.50:30.00:48.50:20.00, N/P 9, Fluc-mRNA): 1.18E+07
IVIS (mice; IV, body, DMG-PEG2000:DSPC:Chol:compound 1.50:30.00:58.50:10.00, N/P 9, Fluc-mRNA): 2.03E+06
IVIS (mice; IV, body, DMG-PEG2000:DSPC:Chol:compound 1.50:30.00:63.50:5.00, N/P 9, Fluc-mRNA): 1.06E+06
% of organ targeting (mice; IV, liver, DMG-PEG2000:DSPC:Chol:compound 1.50:30.00:33.50:35.00, N/P 9): 3.86%
IVIS (mice; IV, liver, DMG-PEG2000:DSPC:Chol:compound 1.50:30.00:33.50:35.00, N/P 9, Fluc-mRNA): 1.00E+06
% of organ targeting (mice; IV, liver, DMG-PEG2000:DSPC:Chol:compound 1.50:30.00:48.50:20.00, N/P 9): 8.55%
IVIS (mice; IV, liver, DMG-PEG2000:DSPC:Chol:compound 1.50:30.00:48.50:20.00, N/P 9, Fluc-mRNA): 1.65E+06
% of organ targeting (mice; IV, liver, DMG-PEG2000:DSPC:Chol:compound 1.50:30.00:58.50:10.00, N/P 9): 36.36%
IVIS (mice; IV, liver, DMG-PEG2000:DSPC:Chol:compound 1.50:30.00:58.50:10.00, N/P 9, Fluc-mRNA): 7.14E+05
% of organ targeting (mice; IV, liver, DMG-PEG2000:DSPC:Chol:compound 1.50:30.00:63.50:5.00, N/P 9): 26.05%
IVIS (mice; IV, liver, DMG-PEG2000:DSPC:Chol:compound 1.50:30.00:63.50:5.00, N/P 9, Fluc-mRNA): 1.91E+05
% of organ targeting (mice; IV, lung, DMG-PEG2000:DSPC:Chol:compound 1.50:30.00:33.50:35.00, N/P 9): 2.02%
IVIS (mice; IV, lung, DMG-PEG2000:DSPC:Chol:compound 1.50:30.00:33.50:35.00, N/P 9, Fluc-mRNA): 5.23E+05
% of organ targeting (mice; IV, lung, DMG-PEG2000:DSPC:Chol:compound 1.50:30.00:48.50:20.00, N/P 9): 4.05%
IVIS (mice; IV, lung, DMG-PEG2000:DSPC:Chol:compound 1.50:30.00:48.50:20.00, N/P 9, Fluc-mRNA): 7.80E+05
% of organ targeting (mice; IV, lung, DMG-PEG2000:DSPC:Chol:compound 1.50:30.00:58.50:10.00, N/P 9): 4.39%
IVIS (mice; IV, lung, DMG-PEG2000:DSPC:Chol:compound 1.50:30.00:58.50:10.00, N/P 9, Fluc-mRNA): 8.62E+04
% of organ targeting (mice; IV, lung, DMG-PEG2000:DSPC:Chol:compound 1.50:30.00:63.50:5.00, N/P 9): 7.91%
IVIS (mice; IV, lung, DMG-PEG2000:DSPC:Chol:compound 1.50:30.00:63.50:5.00, N/P 9, Fluc-mRNA): 5.78E+04
% of organ targeting (mice; IV, spleen, DMG-PEG2000:DSPC:Chol:compound 1.50:30.00:33.50:35.00, N/P 9): 94.12%
IVIS (mice; IV, spleen, DMG-PEG2000:DSPC:Chol:compound 1.50:30.00:33.50:35.00, N/P 9, Fluc-mRNA): 2.44E+07
% of organ targeting (mice; IV, spleen, DMG-PEG2000:DSPC:Chol:compound 1.50:30.00:48.50:20.00, N/P 9): 87.40%
IVIS (mice; IV, spleen, DMG-PEG2000:DSPC:Chol:compound 1.50:30.00:48.50:20.00, N/P 9, Fluc-mRNA): 1.68E+07
% of organ targeting (mice; IV, spleen, DMG-PEG2000:DSPC:Chol:compound 1.50:30.00:58.50:10.00, N/P 9): 59.25%
IVIS (mice; IV, spleen, DMG-PEG2000:DSPC:Chol:compound 1.50:30.00:58.50:10.00, N/P 9, Fluc-mRNA): 1.16E+06
% of organ targeting (mice; IV, spleen, DMG-PEG2000:DSPC:Chol:compound 1.50:30.00:63.50:5.00, N/P 9): 66.04%
IVIS (mice; IV, spleen, DMG-PEG2000:DSPC:Chol:compound 1.50:30.00:63.50:5.00, N/P 9, Fluc-mRNA): 4.83E+05
tissue-targeting specificity (lung vs spleen depending on molar percentage of compound) (mice; certain formulations, Table 2): strong tissue-targeting specificity
